Assay: Measurement of solubility in water
Type: physicochemical
Conditions: 200 g/L in 15° C. water

## iron-citrate complex compound [Example 1]
  proportion of the complex compound dissolved: 100%
100% dissolved
  time for dissolution: ≤ 5 min

## iron-citrate complex compound [Comparative Example 1]
  proportion of the complex compound dissolved: 10%
  proportion of the complex compound precipitated: 90%

Reference: patent US20240034744A1, “COMPLEX COMPOUND OF COMPRISING THE CITRATE AND IRON ION AND THE FOOD COMPOSITION COMPRISING THE SAME” (priority 2022, published 2024)
